Laboratory results as given in ChEMBL document CHEMBL3525973, “Quantitative prediction of human intestinal glucuronidation effects on intestinal availability of UDP-glucuronosyltransferase substrates using in vitro data” (Drug Metab Dispos, 2012).

What was measured:
[1] = Unbound fraction during UGT-mediated glucuronidation in human intestinal microsomes
[2] = Intrinsic clearance in human intestinal microsomes assessed UGT-mediated glucuronidation clearance
[3] = Unbound intrinsic clearance in human intestinal microsomes assessed UGT-mediated glucuronidation clearance
[4] = target: T1, UDP-glucuronosyltransferase 1A3 (Homo sapiens, UniProt P35503); assay: Activity of human UGT1A3 expressed in insect cells assessed as reduction in compound level after 30 mins; type: ADME; conditions: 0.5 h
T1 sequence (P35503 whole entry): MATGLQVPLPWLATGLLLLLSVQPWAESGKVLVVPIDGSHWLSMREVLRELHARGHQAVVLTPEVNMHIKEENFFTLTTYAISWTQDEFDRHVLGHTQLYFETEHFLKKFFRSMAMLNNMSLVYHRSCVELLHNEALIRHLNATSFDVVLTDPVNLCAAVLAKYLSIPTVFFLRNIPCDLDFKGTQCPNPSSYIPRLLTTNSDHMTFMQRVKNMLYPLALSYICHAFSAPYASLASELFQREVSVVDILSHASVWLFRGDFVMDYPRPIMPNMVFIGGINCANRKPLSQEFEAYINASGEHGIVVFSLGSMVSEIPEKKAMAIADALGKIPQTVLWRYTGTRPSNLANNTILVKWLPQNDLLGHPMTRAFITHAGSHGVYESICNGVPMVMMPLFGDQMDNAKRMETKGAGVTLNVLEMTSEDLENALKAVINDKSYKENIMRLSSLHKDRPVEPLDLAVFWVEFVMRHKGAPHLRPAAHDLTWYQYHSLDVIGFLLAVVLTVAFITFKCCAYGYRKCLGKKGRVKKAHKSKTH

[5] = target: T2, UDP-glucuronosyltransferase 1A1 (Homo sapiens, UniProt P22309); assay: Activity of human UGT1A1 expressed in insect cells assessed as reduction in compound level after 30 mins; type: ADME; conditions: 0.5 h
T2 sequence (P22309 whole entry): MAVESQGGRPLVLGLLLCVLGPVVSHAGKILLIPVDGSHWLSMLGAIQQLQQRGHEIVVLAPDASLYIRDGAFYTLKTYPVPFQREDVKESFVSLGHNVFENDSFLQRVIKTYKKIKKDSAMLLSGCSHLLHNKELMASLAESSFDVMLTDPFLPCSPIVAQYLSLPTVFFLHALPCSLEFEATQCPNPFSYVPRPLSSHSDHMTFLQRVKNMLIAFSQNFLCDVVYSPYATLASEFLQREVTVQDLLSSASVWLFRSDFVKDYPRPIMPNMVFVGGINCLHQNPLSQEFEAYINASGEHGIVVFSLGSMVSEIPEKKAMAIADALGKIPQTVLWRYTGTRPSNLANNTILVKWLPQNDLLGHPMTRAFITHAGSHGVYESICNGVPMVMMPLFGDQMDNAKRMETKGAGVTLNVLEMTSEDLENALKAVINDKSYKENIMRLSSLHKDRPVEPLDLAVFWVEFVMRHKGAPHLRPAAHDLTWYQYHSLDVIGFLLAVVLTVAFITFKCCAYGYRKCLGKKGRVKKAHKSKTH

[6] = Drug absorption in po dosed human; type: ADME, organism-based; conditions: in vivo, read-out: Drug absorption
[7] = Apparent permeability by PAMPA method
clinical [8] = conditions: human, in vivo, po
in vitro = conditions: human, blood and plasma
Description: Ratio of drug level in blood to plasma in human

[9] = Intrinsic clearance in human intestinal microsomes assessed CYP450-mediated glucuronidation clearance
[10] = Unbound intrinsic clearance in human intestinal microsomes assessed CYP450-mediated glucuronidation clearance
[11] = target: T3, UDP-glucuronosyltransferase 2B7 (Homo sapiens, UniProt P16662); assay: Activity of human UGT2B7 expressed in insect cells assessed as reduction in compound level after 30 mins; type: ADME; conditions: 0.5 h
T3 sequence (P16662 whole entry): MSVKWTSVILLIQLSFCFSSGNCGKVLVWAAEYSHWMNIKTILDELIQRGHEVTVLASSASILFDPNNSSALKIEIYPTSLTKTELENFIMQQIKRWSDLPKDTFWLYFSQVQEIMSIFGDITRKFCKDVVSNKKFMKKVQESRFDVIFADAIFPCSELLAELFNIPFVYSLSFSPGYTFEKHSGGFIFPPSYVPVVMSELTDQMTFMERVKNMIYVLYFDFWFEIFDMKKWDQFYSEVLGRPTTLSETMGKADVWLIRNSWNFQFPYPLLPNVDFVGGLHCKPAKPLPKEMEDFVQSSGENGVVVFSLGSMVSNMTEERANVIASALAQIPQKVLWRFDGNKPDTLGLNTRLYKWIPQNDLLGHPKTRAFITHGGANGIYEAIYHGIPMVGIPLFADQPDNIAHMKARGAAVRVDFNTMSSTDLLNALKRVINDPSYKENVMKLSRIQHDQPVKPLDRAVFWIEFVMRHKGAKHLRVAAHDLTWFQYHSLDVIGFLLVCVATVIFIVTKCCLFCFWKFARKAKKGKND

[12] = target: T4, UDP-glucuronosyltransferase 1A9 (Homo sapiens, UniProt O60656); assay: Activity of human UGT1A9 expressed in insect cells assessed as reduction in compound level after 30 mins; type: ADME; conditions: 0.5 h
T4 sequence (O60656 whole entry): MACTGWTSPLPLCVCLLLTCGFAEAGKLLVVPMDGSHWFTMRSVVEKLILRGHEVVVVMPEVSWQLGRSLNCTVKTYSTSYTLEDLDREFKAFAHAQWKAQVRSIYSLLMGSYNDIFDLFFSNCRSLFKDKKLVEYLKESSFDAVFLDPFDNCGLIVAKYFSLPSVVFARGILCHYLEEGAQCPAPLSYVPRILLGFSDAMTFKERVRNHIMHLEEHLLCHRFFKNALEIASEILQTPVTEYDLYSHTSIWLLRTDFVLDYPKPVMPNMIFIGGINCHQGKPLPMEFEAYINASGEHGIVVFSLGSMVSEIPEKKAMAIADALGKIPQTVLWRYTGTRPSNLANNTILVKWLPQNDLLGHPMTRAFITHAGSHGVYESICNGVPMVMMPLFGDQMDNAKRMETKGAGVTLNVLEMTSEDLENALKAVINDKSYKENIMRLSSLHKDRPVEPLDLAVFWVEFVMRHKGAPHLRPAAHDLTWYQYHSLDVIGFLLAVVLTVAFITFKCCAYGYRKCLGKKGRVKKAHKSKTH

clinical [13] = conditions: human, in vivo
clinical [14] = conditions: human, in vivo; remark: listed apart in the source
[15] = Unbound fraction during CYP4500-mediated metabolism in human intestinal microsomes
[16] = target: T5, UDP-glucuronosyltransferase 1A8 (Homo sapiens, UniProt Q9HAW9); assay: Activity of human UGT1A8 expressed in insect cells assessed as reduction in compound level after 30 mins; type: ADME; conditions: 0.5 h
T5 sequence (Q9HAW9 whole entry): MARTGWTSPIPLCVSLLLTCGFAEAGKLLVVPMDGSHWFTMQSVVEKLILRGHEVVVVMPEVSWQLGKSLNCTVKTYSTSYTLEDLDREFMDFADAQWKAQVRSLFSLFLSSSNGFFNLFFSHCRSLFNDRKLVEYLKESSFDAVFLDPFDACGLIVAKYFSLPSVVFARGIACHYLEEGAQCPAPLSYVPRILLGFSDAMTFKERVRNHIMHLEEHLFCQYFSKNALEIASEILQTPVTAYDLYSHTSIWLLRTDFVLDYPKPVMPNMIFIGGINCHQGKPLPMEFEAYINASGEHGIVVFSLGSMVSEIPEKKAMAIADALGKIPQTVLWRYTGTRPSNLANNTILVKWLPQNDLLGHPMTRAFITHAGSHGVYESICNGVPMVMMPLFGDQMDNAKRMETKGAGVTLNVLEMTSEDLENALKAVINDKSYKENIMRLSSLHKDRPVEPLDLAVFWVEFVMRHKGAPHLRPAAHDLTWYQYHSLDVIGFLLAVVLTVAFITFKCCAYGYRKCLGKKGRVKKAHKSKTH

[17] = target: T6, UDP-glucuronosyltransferase 1A10 (Homo sapiens, UniProt Q9HAW8); assay: Activity of human UGT1A10 expressed in insect cells assessed as reduction in compound level after 30 mins; type: ADME; conditions: 0.5 h
T6 sequence (Q9HAW8 whole entry): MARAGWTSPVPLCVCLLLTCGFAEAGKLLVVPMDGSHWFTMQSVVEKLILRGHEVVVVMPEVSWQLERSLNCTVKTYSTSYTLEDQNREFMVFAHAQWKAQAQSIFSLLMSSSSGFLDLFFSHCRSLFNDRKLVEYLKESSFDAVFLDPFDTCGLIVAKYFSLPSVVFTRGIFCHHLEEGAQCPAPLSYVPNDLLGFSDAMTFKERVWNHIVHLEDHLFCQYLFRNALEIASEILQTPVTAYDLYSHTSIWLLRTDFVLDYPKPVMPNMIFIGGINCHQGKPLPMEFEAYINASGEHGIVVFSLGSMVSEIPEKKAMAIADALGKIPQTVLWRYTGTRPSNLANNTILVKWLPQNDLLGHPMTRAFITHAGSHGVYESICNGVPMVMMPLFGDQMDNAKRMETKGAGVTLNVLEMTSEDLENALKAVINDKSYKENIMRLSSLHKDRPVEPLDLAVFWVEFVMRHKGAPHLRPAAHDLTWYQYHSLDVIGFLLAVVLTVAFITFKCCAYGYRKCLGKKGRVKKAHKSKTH

[18] = Oral bioavailability in human; type: ADME, organism-based; conditions: in vivo

SMILES | fraction unbound ([1]; intestinal microsomes) | microsomal CLint ([2]; intestinal microsomes) | CL free [3] | Papp [7] | blood plasma ratio (in vitro) | fraction unbound ([1]; microsomes) | Drug metabolism [12] | other results
O=c1c(O)c(-c2ccc(O)c(O)c2)oc2cc(O)cc(O)c12 [QUERCETIN] | 0.9 | 4620 µL/min/mg | 5133 µL/min/mg | < 15 nm/s | 1 |  |  | Drug metabolism [4]: metabolite_detected; Drug metabolism [5]: metabolite_detected; Fa [6]: 65%; CL/F (clinical [8]): 500 L/h/kg
O=C(O)Cc1ccccc1Nc1c(Cl)cccc1Cl [DICLOFENAC] |  |  | 62.7 µL/min/mg |  |  | 0.94 |  | microsomal CLint ([2]; microsomes): 59 µL/min/mg; CL ([9]; microsomes): metabolite_not_detected; CL free [10]: metabolite_not_detected; Drug metabolism [11]: metabolite_detected
COc1ccc2c(c1)c(CC(=O)O)c(C)n2C(=O)c1ccc(Cl)cc1 [INDOMETHACIN] |  | 4.2 µL/min/mg | 5.2 µL/min/mg | 220 nm/s | 0.55 | 0.8 | metabolite_detected | clearance (clinical [13]): 0.084 L/h/kg; CL renal (clinical [14]): 0.0126 L/h/kg
O=C(c1ccc(OCCN2CCCCC2)cc1)c1c(-c2ccc(O)cc2)sc2cc(O)ccc12 [RALOXIFENE] | 0.98 |  | 2224 µL/min/mg | 30 nm/s |  |  |  | CL ([2]; microsomes): 2180 µL/min/mg; fraction unbound [15]: 0.43; microsomal CLint ([9]; intestinal microsomes): 8.9 µL/min/mg; CL free [10]: 20.7 µL/min/mg; Drug metabolism [16]: metabolite_detected; Drug metabolism [17]: metabolite_detected
Cc1c(-c2ccc(O)cc2)n(Cc2ccc(OCCN3CCCCCC3)cc2)c2ccc(O)cc12 [BAZEDOXIFENE] |  |  |  | 200 nm/s |  |  |  | Drug metabolism [5]: metabolite_detected; Drug metabolism [16]: metabolite_detected; Drug metabolism [17]: metabolite_detected; bioavailability [18]: 6.2%
Cc1ccc(C(=O)c2cc(O)c(O)c([N+](=O)[O-])c2)cc1 [TOLCAPONE] | 0.39 | 40 µL/min/mg | 103 µL/min/mg | 180 nm/s | 0.61 |  | metabolite_detected | 
CCN(CC)C(=O)/C(C#N)=C/c1cc(O)c(O)c([N+](=O)[O-])c1 [ENTACAPONE] | 1 | 27 µL/min/mg | 27 µL/min/mg | 41 nm/s | 0.59 |  |  | 
Cc1ncc2n1-c1ccc(Cl)cc1C(c1ccccc1F)=NC2 [MIDAZOLAM] |  |  |  |  |  |  |  | microsomal CLint ([9]; microsomes): 153 µL/min/mg
CCc1cccc2c3c([nH]c12)C(CC)(CC(=O)O)OCC3 (configuration not stated) [ETODOLAC] |  | 6.2 µL/min/mg | 5.7 µL/min/mg | 230 nm/s | 0.55 |  | metabolite_detected | bioavailability [18]: 80%; CL/F (clinical [8]): 0.0492 L/h/kg; clearance (clinical [13]): 0.0396 L/h/kg
CCCc1nc2c(C)cc(-c3nc4ccccc4n3C)cc2n1Cc1ccc(-c2ccccc2C(=O)O)cc1 |  | 20 µL/min/mg | 21.7 µL/min/mg | > 300 nm/s | 0.67 | 0.92 |  | 
